Results from US10787435B2, “ASK1 inhibitor and preparation method and use thereof” (FUJIAN COSUNTER PHARMACEUTICAL CO., LTD., priority 2017, dated 2020).

Tests used:
ASK1/MAP3K5 = ASK1/MAP3K5 (Homo sapiens (Human), UniProt Q99683); assay: Evaluation of in vitro enzyme activity (33P-ATP radiometric kinase assay, MBP substrate); format: biochemical; details: recombinant human full length GST-tagged ASK1 20 nM, MBP 20 μM
Experimental: Example 1: Evaluation of In Vitro Enzyme Activity
Base Reaction Buffer: 20 mM Hepes (pH 7.5), 10 mM MgCl2, 1 mM EGTA, 0.02% Brij35, 0.02 mg/ml BSA, 0.1 mM Na3VO4, 2 mM DTT, 1% DMSO
The test compound was formulated into a 10 mM stock solution in DMSO, which was diluted into 10 concentrations in 3-fold degression, and placed in a 384-well plate (Cyclic Olefin Copolymer LDV Echo®).
Kinase Name: ASK1/MAP3K5 (Invitrogen, Carlsbad, Calif.)
Type: Recombinant Human Full Length Protein, GST-tagged
Final concentration of the enzyme: 20 nM
Substrate: Myelin basic protein, MBP (Active Motif, Carlsbad, Calif.)
Final concentration of the substrate: 20 μM
1. The substrate was dissolved in a freshly prepared base reaction buffer.
2. A desired coenzyme was added to the above substrate solution.
3. The kinase was added to the substrate solution and mixed slowly.
4. The solution of the test compound in DMSO was added to the kinase reaction solution and incubated at room temperature for 20 minutes.
5. ^33P-ATP (specific activity of 10 μCi/μl) was added to the reaction solution to initiate the reaction.
6. Incubated at room temperature for 2 hours.
7. A small portion of the reactants was placed onto a P-81 ion exchange filter paper.
8. The filter paper was washed three times with 0.75% […] to wash off the unbound phosphate, and then the filter paper was dried.
9. The radioactivity remaining on the filter paper was determined.
10. Kinase activity data was expressed as the ratio of the kinase activity remaining in the test sample to the kinase activity in the vehicle (DMSO).
11. IC50 values and curve fits was obtained with Prism (GraphPad software).

[1] = Studies on pharmacokinetic properties in mice (plasma concentration by LC-MS/MS); format: in vivo; details: C57BL/6 male mice, dose not stated; for Exposure: intravenous or oral administration; for bioavailability: mouse, po, intragastric vs tail vein
Experimental: Example 2: Studies on Pharmacokinetic Properties
C57BL/6 male mice were used as subject animals in the study. The concentration of the drug in the plasma of mice injected intravenously or administrated orally with the test compound was quantified at different time points by using a LC/MS/MS method to evaluate the pharmacokinetic characteristics of the test drug in mice.
A clear solution of the test compound was injected into C57BL/6 mice (overnight-fasted, 7-10 weeks old) via the tail vein, and the test compound was intragastrically administered to C57BL/6 mice (overnight-fasted, 7-10 weeks old). Approximately 30 μL of blood was collected from each animal via the jugular vein or tail vein at 0.0833, 0.25, 0.5, 1, 2, 4, 6, 8 and 24 hours after administration, and placed in an anticoagulant tube supplemented with EDTA-K2. Centrifuged at 3000 g at 4° C. for 15 min, and the plasma was collected. The plasma concentration was determined by LC-MS/MS. The pharmacokinetic parameters were calculated by using the non-compartment model and linear logarithmic trapezoidal method using the pharmacokinetic software WinNonlin™ Version 6.3 (Pharsight, Mountain View, Calif.).

Sequence of ASK1/MAP3K5 (Q99683 whole entry): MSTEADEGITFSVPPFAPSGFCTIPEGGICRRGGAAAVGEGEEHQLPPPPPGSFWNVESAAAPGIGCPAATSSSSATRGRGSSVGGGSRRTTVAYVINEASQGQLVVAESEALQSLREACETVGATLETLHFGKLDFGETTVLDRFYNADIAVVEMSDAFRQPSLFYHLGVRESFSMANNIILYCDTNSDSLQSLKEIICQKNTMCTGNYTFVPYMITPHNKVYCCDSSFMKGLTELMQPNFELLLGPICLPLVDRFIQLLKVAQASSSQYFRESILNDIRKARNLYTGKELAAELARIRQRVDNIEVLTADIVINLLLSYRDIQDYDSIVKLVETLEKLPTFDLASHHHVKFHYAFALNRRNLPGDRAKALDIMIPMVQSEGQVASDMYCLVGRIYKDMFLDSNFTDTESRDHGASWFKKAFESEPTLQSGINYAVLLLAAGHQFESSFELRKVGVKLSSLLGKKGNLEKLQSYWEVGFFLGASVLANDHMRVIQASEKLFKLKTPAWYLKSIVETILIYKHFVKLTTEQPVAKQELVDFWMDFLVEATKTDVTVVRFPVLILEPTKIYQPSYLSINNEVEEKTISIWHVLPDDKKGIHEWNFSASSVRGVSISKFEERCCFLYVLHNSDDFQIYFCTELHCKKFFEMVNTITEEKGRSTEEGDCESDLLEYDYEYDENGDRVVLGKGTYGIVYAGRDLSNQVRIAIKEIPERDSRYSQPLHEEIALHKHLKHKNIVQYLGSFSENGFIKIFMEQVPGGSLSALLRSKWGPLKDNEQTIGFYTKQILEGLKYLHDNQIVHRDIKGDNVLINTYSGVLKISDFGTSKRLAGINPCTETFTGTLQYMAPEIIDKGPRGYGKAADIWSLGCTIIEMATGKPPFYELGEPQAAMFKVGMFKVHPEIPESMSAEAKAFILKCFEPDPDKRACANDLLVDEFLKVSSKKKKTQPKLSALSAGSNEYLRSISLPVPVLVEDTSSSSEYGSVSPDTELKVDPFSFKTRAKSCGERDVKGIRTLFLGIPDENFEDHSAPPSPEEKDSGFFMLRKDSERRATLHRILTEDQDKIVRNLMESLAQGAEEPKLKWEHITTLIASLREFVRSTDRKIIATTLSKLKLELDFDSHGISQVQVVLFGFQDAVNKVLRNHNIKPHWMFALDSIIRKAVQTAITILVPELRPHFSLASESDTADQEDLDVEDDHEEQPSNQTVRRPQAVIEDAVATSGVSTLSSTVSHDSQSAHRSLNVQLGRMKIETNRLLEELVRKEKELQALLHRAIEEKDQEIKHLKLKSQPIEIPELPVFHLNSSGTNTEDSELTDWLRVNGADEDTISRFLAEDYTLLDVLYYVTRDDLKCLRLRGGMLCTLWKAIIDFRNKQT

Row | Structure (SMILES) | IC50 (ASK1/MAP3K5) | Exposure [1] | bioavailability [1]
1 | Cc1cc2ncn(-c3cccc(-c4nnc(C)n4C)n3)c(=O)c2cc1-n1cnc(C2CC2)c1 [Example 015] | > 1000 nM | – | –
2 | CC(C)n1cnnc1-c1cccc(-n2cnc3cc(-c4ccc(N)nc4)c(-n4cnc(C5CC5)c4)cc3c2=O)n1 [Example 034] | ≤ 50 nM | – | –
3 | Cc1cc2ncn(-c3cccc(-c4nncn4C(C)C)n3)c(=O)c2cc1-n1cnc(C2CC2)c1 [Example 011] | ≤ 50 nM | 31.832 µM·h | 108%
4 | COc1cc2ncn(-c3cccc(-c4nncn4C(C)C)n3)c(=O)c2cc1-n1cnc(C2CC2)c1 [Example 031] | ≤ 50 nM | – | –
5 | CC(C)n1cnnc1-c1cccc(-n2cc(F)c3ccc(-n4cnc(C5CC5)c4)cc3c2=O)n1 [Example 003] | ≤ 50 nM | 66.259 µM·h | 214%
6 | CC(C)n1cnnc1-c1cccc(-n2cnc3cc(-c4cccnc4)c(-n4cnc(C5CC5)c4)cc3c2=O)n1 [Example 024] | ≤ 50 nM | – | –
7 | Cc1cc2ccn(-c3cccc(-c4nncn4C(C)C)n3)c(=O)c2cc1-n1cnc(C2CC2)c1 [Example 006] | ≤ 50 nM | – | –
8 | Cc1nc(C2CC2)cn1-c1ccc2c(c1)C(=O)N(c1cccc(-c3nnc4n3CCCC4)n1)CC2 [Example 012] | > 1000 nM | – | –
9 | Cc1cc2ncn(-c3cccc(-c4nncn4CC(F)(F)F)n3)c(=O)c2cc1-n1cnc(C2CC2)c1 [Example 019] | ≤ 50 nM | – | –
10 | CNC(=O)COc1cc2ncn(-c3cccc(-c4nncn4C(C)C)n3)c(=O)c2cc1-n1cnc(C2CC2)c1 [Example 039] | ≤ 50 nM | – | –
11 | CC(C)n1cnnc1-c1cccc(-n2cnc3cc(-c4ccsc4)c(-n4cnc(C5CC5)c4)cc3c2=O)n1 [Example 025] | ≤ 50 nM | – | –
12 | Cc1ccc(-c2cc3ncn(-c4cccc(-c5nncn5C(C)C)n4)c(=O)c3cc2-n2cnc(C3CC3)c2)cn1 [Example 032] | ≤ 50 nM | – | –
13 | CC(C)n1cnnc1-c1cccc(-n2ccc3ccc(-n4cnc(C5CC5)c4)cc3c2=O)n1 [Example 004] | ≤ 50 nM | – | –
14 | Cc1cc2c(F)cn(-c3cccc(-c4nncn4C(C)C)n3)c(=O)c2cc1-n1cnc(C2CC2)c1 [Example 007] | ≤ 50 nM | 29.007 µM·h | 123%
15 | CC(C)n1cnnc1-c1cccc(N2Cc3ccc(-n4cnc(C5CC5)c4)cc3C2=O)n1 [Example 005] | ≤ 50 nM | – | –
16 | Cc1cc2c(cc1-n1cnc(C3CC3)c1)C(=O)N(c1cccc(-c3nnc4n3CCC4)n1)CC2 [Example 008] | ≤ 50 nM | 103.95 µM·h | 98.5%
17 | COc1nc2cc(C)c(-n3cnc(C4CC4)c3)cc2c(=O)n1-c1cccc(-c2nncn2C(C)C)n1 [Example 029] | > 1000 nM | – | –
18 | Cc1cc2c(F)cn(-c3cccc(-c4nnc5n4CCCC5)n3)c(=O)c2cc1-n1cnc(C2CC2)c1 [Example 017] | 50 to 1000 nM | – | –

Row | Structure (SMILES) | IC50 (ASK1/MAP3K5) | Exposure [1] | bioavailability [1]
19 | Cc1cc2ncn(-c3cccc(-c4nnc5n4CCC5)n3)c(=O)c2cc1-n1cnc(C2CC2)c1 [Example 028] | 50 to 1000 nM | – | –
20 | CC(C)n1cnnc1-c1cccc(N2CCc3ccc(-n4cnc(C5CC5)c4)cc3C2=O)n1 [Example 001] | ≤ 50 nM | 69.652 µM·h | 133%
21 | Cc1cc2ncn(-c3cccc(-c4nnc5n4CCCC5)n3)c(=O)c2cc1-n1cnc(C2CC2)c1 [Example 014] | 50 to 1000 nM | – | –
22 | Cc1cc2c(cc1-n1cnc(C3CC3)c1)C(=O)N(c1cccc(-c3nncn3C(C)C)n1)CC2 [Example 002] | ≤ 50 nM | 29.277 µM·h | 92%
23 | CC(C)n1cnnc1-c1cccc(-n2cnc3ccc(-n4cnc(C5CC5)c4)cc3c2=O)n1 [Example 013] | ≤ 50 nM | – | –
24 | CC(C)n1cnnc1-c1cccc(-n2cnc3cc(O)c(-n4cnc(C5CC5)c4)cc3c2=O)n1 [Example 037] | ≤ 50 nM | – | –
25 | Cc1nnc(-c2cccc(-n3cnc4cc(C)c(-n5cnc(C6CC6)c5)cc4c3=O)n2)o1 [Example 020] | > 1000 nM | – | –
26 | Cc1cc2c(cc1-n1cnc(C3CC3)c1)C(=O)N(c1cccc(-c3nnc4n3CCCC4)n1)CC2 [Example 009] | ≤ 50 nM | 89.099 µM·h | 115%
27 | COc1ccc(-c2cc3ncn(-c4cccc(-c5nncn5C(C)C)n4)c(=O)c3cc2-n2cnc(C3CC3)c2)cn1 [Example 033] | ≤ 50 nM | 20.356 µM·h | 148%
28 | CC(C)n1cnnc1-c1cccc(-n2cnc3cc(-c4ccccc4)c(-n4cnc(C5CC5)c4)cc3c2=O)n1 [Example 023] | ≤ 50 nM | – | –
29 | O=C1c2cc(-n3cnc4c3CCCC4)ccc2CCN1c1cccc(-c2nnc3n2CCCC3)n1 [Example 010] | 50 to 1000 nM | – | –
30 | Cc1cc2ncn(-c3cccc(-c4nncn4C4CC4)n3)c(=O)c2cc1-n1cnc(C2CC2)c1 [Example 018] | ≤ 50 nM | 59.568 µM·h | 111%
31 | Cc1cc2ncn(-c3cccc(-c4nnc(C)n4C(C)C)n3)c(=O)c2cc1-n1cnc(C2CC2)c1 [Example 016] | 50 to 1000 nM | – | –
32 | CC(C)n1cnnc1-c1cccc(-n2cnc3cc(OCC(N)=O)c(-n4cnc(C5CC5)c4)cc3c2=O)n1 [Example 038] | ≤ 50 nM | – | –
33 | COCCOc1cc2ncn(-c3cccc(-c4nncn4C(C)C)n3)c(=O)c2cc1-n1cnc(C2CC2)c1 [Example 035] | ≤ 50 nM | – | –
34 | CCc1cc2ncn(-c3cccc(-c4nncn4C(C)C)n3)c(=O)c2cc1-n1cnc(C2CC2)c1 [Example 022] | ≤ 50 nM | – | –
35 | CC(C)n1cnnc1-c1cccc(-n2cnc3cc(Cl)c(-n4cnc(C5CC5)c4)cc3c2=O)n1 [Example 021] | ≤ 50 nM | – | –

Second part, the compound after the results:

Row | IC50 (ASK1/MAP3K5) | Exposure [1] | bioavailability [1] | Structure (SMILES)
36 | ≤ 50 nM | – | – | Cc1cc2ncn(-c3cccc(-c4nncn4C(C)(C)C)n3)c(=O)c2cc1-n1cnc(C2CC2)c1 [Example 047]
37 | > 1000 nM | – | – | Cc1cc2ncn(-c3cccc(-c4nncn4C(C)C)c3)c(=O)c2cc1-n1cnc(C2CC2)c1 [Example 043]
38 | ≤ 50 nM | – | – | Cc1cc2ncn(-c3csc(-c4nncn4C(C)C)n3)c(=O)c2cc1-n1cnc(C2CC2)c1 [Example 046]
39 | ≤ 50 nM | – | – | CCC(CC)n1cnnc1-c1cccc(-n2cnc3cc(C)c(-n4cnc(C5CC5)c4)cc3c2=O)n1 [Example 045]
40 | ≤ 50 nM | – | – | Cc1cc2ncn(-c3cccc(-c4nncn4C(C)C)n3)c(=O)c2cc1-c1ccc(C(C)C)nc1 [Example 052]
41 | 50 to 1000 nM | – | – | Cc1cc2ncn(-c3cccc(-c4nncn4C4CCC(F)(F)CC4)n3)c(=O)c2cc1-n1cnc(C2CC2)c1 [Example 049]
42 | ≤ 50 nM | – | – | Cc1cc2ncn(-c3cccc(-c4nncn4C(C)C)n3)c(=O)c2cc1-n1cnc(-c2ccccc2)c1 [Example 050]
43 | ≤ 50 nM | – | – | CC(C)n1cnnc1-c1cccc(-n2cnc3cc(N4CCOCC4)c(-n4cnc(C5CC5)c4)cc3c2=O)n1 [Example 056]
44 | ≤ 50 nM | – | – | CC(C)n1cnnc1-c1cccc(-n2cnc3cc(N(C)C)c(-n4cnc(C5CC5)c4)cc3c2=O)n1 [Example 055]
45 | ≤ 50 nM | – | – | Cc1cc2ncn(-c3cccc(-c4nncn4C(C)CO)n3)c(=O)c2cc1-n1cnc(C2CC2)c1 (centres unmarked) [Example 057]
46 | ≤ 50 nM | – | – | CC(C)n1cnnc1-c1cccc(-n2cnc3cc(OCC4COC4)c(-n4cnc(C5CC5)c4)cc3c2=O)n1 [Example 058]
47 | ≤ 50 nM | – | – | Cc1cc2ncn(-c3cccc(-c4nncn4C4CCCCC4)n3)c(=O)c2cc1-n1cnc(C2CC2)c1 [Example 051]
48 | > 1000 nM | – | – | Cc1cc2ncn(-c3csc(-c4nncn4C(C)C)c3)c(=O)c2cc1-n1cnc(C2CC2)c1 [Example 042]
49 | 50 to 1000 nM | – | – | Cc1cc2ncn(-c3cccc(-c4nncn4C4CCOCC4)n3)c(=O)c2cc1-n1cnc(C2CC2)c1 [Example 048]
50 | ≤ 50 nM | – | – | CC(C)n1cnnc1-c1cccc(-n2cnc3cc(OCCO)c(-n4cnc(C5CC5)c4)cc3c2=O)n1 [Example 041]
51 | ≤ 50 nM | – | – | CC(C)n1cnnc1-c1cccc(-n2cnc3cc(OCCCS(C)(=O)=O)c(-n4cnc(C5CC5)c4)cc3c2=O)n1 [Example 040]
52 | ≤ 50 nM | – | – | Cc1cc2ncn(-c3cccc(-c4nncn4C4CCCC4)n3)c(=O)c2cc1-n1cnc(C2CC2)c1 [Example 044]
53 | ≤ 50 nM | – | – | CC(C)n1cnnc1-c1cccc(-n2cnc3cc(OCCCF)c(-n4cnc(C5CC5)c4)cc3c2=O)n1 [Example 054]
